In one assay the target is human FLAP (Homo sapiens (Human), UniProt P20292). Nature of the assay: FLAP binding assay (HTRF format). The method in brief:
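HTRF ratio read-out; two independent plates, samples in duplicate on each, values averaged across plates.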
A general note: In TR-FRET formats the signal depends on donor and acceptor labels being close together.

In assay [1] the test system is leukotriene pathway in human whole blood (LTB4 levels). Put plainly: Human whole blood assay (A23187-stimulated LTB4). Format: cell-based. The settings on record: Homo sapiens, read-out: LTB4 IC50 1:1. The method in brief:
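Blood (heparin) diluted 1:1 RPMI; compound pre-incubation 15 min, 37° Celsius; A23187 7 μg/mL, 30 min, 37° Celsius; plasma LTB4 by commercial kit. IC50 via 4-parameter equation.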

Setting [2] is: human whole blood diluted 1:1, A23187-stimulated.
[3] abbreviates: human FLAP wild type, HTRF format, average of two plates, duplicates.
Where [4] appears, read: human whole blood diluted 1:1 in RPMI, A23187-stimulated LTB4.
Where [5] appears, read: read-out: FLAP Binding wild type HTRF Ki.

Counter-ions that a name gives are not always drawn. Like-named read-outs stand apart in the source and are kept apart here. A value given as a limit tells only on which side of the number the result lay.

Ki and IC50 data for 30 compounds are collected here from patent publication US9079866B2, “Flap modulators” (JANSSEN PHARMACEUTICA NV, priority 2013, dated 2015).

Chain of human FLAP (P20292 whole entry): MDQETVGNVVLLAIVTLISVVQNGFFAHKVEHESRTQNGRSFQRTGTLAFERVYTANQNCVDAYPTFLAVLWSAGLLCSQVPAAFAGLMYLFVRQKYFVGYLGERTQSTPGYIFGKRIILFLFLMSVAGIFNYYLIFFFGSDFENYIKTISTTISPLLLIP

In general, Ki refers to a dissociation constant, usually derived from enzyme kinetics or from competition with a known ligand. A word on the IC50: it is the concentration that inhibits the measured activity by half. `CC(C)(C)NS(=O)(=O)c1ccccc1-c1ccc(-c2cnc(N)nc2C(F)(F)F)c(F)c1` [Example 453, 4′-[2-Amino-4-(trifluoromethyl)pyrimidin-5-yl]-N-tert-butyl-3′-fluorobiphenyl-2-sulfonamide trifluoroacetic acid salt] yielded a Ki on human FLAP (wild type FLAP, HTRF format) above 10000 nM. The 50% inhibitory concentration (IC50) in assay [1] (setting [2]) is above 10000 nM.
On to `CC(C)(CO)NS(=O)(=O)c1ccccc1-c1ccc(-c2cnc(N)cn2)c(F)c1` [Example 100, 4′-(5-Aminopyrazin-2-yl)-3′-fluoro-N-(2-hydroxy-1,1-dimethylethyl)biphenyl-2-sulfonamide], for which the inhibition constant (Ki) on human FLAP (setting [3]) turned out to be 1 nM. The IC50 in assay [1] (setting [4]) worked out at 24 nM.
For `N#Cc1ccc(Oc2ccccc2-c2ccc(-c3cnc(N)cn3)c(F)c2)nc1` [Example 626, 6-{[4′-(5-Aminopyrazin-2-yl)-3′-fluorobiphenyl-2-yl]oxy}pyridine-3-carbonitrile], the Ki at human FLAP (wild type FLAP, HTRF format) came to 6.2 nM. Besides, the IC50 in assay [1] (setting [2]) amounted to 45.3 nM.
As for `Nc1cnc(-c2ccc(-c3ccccc3SCC3CNC(=O)O3)cc2F)cn1` (racemic) [Example 203, racemic 5-({[4′-(5-Aminopyrazin-2-yl)-3′-fluorobiphenyl-2-yl]sulfanyl}methyl)-1,3-oxazolidin-2-one], the Ki at human FLAP (setting [3]) was determined as 5 nM. For the same compound, the IC50 in assay [1] (setting [4]) worked out at 52 nM.
As to `CC(C)(C)NS(=O)(=O)c1ccccc1-c1ccc(-c2cnc(N)c(C(F)(F)F)c2)c(F)c1` [Example 452, 4′-[6-Amino-5-(trifluoromethyl)pyridin-3-yl]-N-tert-butyl-3′-fluorobiphenyl-2-sulfonamide trifluoroacetic acid salt], the Ki at human FLAP (setting [5]) was 81 nM. Also, in assay [1] (setting [2]), the IC50 was 1950 nM.
As to `Nc1cnc(-c2ccc(-c3ccccc3-c3cncnc3)cc2F)cn1` [Example 848, 5-(3-Fluoro-2′-pyrimidin-5-ylbiphenyl-4-yl)pyrazin-2-amine], the Ki on human FLAP (wild type FLAP, HTRF format) was found to be 96.8 nM. Also, in assay [1] (setting [2]), the IC50 was determined as 322 nM.
For `Nc1cnc(-c2ccc(-c3ccc(C(F)(F)F)cc3C(=O)N3CCC(O)CC3)cc2F)cn1` [Example 795, [2-[4-(5-Aminopyrazin-2-yl)-3-fluoro-phenyl]-5-(trifluoromethyl)phenyl]-(4-hydroxy-1-piperidyl)methanone], in that order: 8.5 nM and 68.6 nM.
At human FLAP (setting [3]), `CC(C)(C)OC(=O)NC1CCCN(S(=O)(=O)c2ccccc2-c2ccc(-c3cnc(N)cn3)c(F)c2)C1` (racemic) [Example 77, racemic tert-Butyl (1-{[4′-(5-aminopyrazin-2-yl)-3′-fluorobiphenyl-2-yl]sulfonyl}piperidin-3-yl)carbamate] displayed a Ki of 3 nM. The IC50 in assay [1] (setting [4]) came out at 342 nM.
Taken in the same sequence, the figures for `Nc1cnc(-c2ccc(-c3ccccc3S(=O)(=O)N[C@@H]3CCc4ccccc43)cc2F)cn1` [Example 23, (R)-4′-(5-Aminopyrazin-2-yl)-N-[(1R)-2,3-dihydro-1H-inden-1-yl]-3′-fluorobiphenyl-2-sulfonamide] were 1 nM and 13 nM.
In turn, `Nc1cnc(-c2ccc(-c3cccnc3S(=O)(=O)C3CCS(=O)(=O)CC3)cc2F)cn1` [Example 820, 4-((3-(4-(2-Aminopyrazin-5-yl)-3-fluorophenyl)pyridine-2-yl)sulfonyl)tetrahydro-2H-thiopyran 1,1-dioxide] registered an inhibition constant (Ki) on human FLAP (wild type FLAP, HTRF format) of 3.3 nM. Further, the IC50 in assay [1] (setting [2]) was determined as 41.6 nM.
In the case of `CC1(NS(=O)(=O)c2ccccc2-c2ccc(-c3cnc(N)cn3)c(F)c2)COC1` [Example 173, 4′-(5-Aminopyrazin-2-yl)-3′-fluoro-N-(3-methyloxetan-3-yl)biphenyl-2-sulfonamide], the Ki on human FLAP (setting [3]) is 1 nM. For the same compound, the IC50 in assay [1] (setting [4]) turned out to be 17 nM.
For `CSCc1ccccc1-c1ccc(-c2cnc(N)cn2)c(F)c1` [Example 235, 5-{3-Fluoro-2′-[(methylsulfanyl)methyl]biphenyl-4-yl}pyrazin-2-amine hydrochloride], the affinity on human FLAP (setting [3]), expressed as Ki, was 36 nM. Also, the IC50 in assay [1] (setting [4]) amounted to 285 nM.
Taken in the same sequence, the figures for `CS(=O)(=O)c1cc(C(F)(F)F)ccc1-c1ccc(-c2cnc(N)nc2)c(F)c1` [Example 323, 5-[3-Fluoro-2′-(methylsulfonyl)-4′-(trifluoromethyl)biphenyl-4-yl]pyrimidin-2-amine] were 770 nM and 6640 nM.
Regarding `Nc1ncc(-c2ccc(-c3ccccc3S(=O)(=O)N3CCOC(CO)C3)cc2F)cn1` (racemic) [Example 252, racemic (4-{[4′-(2-Aminopyrimidin-5-yl)-3′-fluorobiphenyl-2-yl]sulfonyl}morpholin-2-yl)methanol], affinity at human FLAP (setting [3]) was put at a Ki of 127 nM. In assay [1] (setting [4]), the IC50 came out at 206 nM.
With `CC(C)(C)S(=O)(=O)c1ncccc1-c1ccc(-c2cnc(N)cn2)c(F)c1` [Example 812, 5-(4-(2-(tert-Butylsulfonyl)pyridin-3-yl)-2-fluorophenyl)pyrazin-2-amine formic acid salt], the Ki on human FLAP (setting [5]) is 8.5 nM. The IC50 in assay [1] (setting [2]) amounted to 12 nM.
For `Nc1cnc(-c2ccc(-c3ccccc3S(=O)(=O)N3CCCCC3)cc2F)cn1` [Example 43, 5-[3-Fluoro-2′-(piperidin-1-ylsulfonyl)biphenyl-4-yl]pyrazin-2-amine], the affinity on human FLAP (setting [3]) corresponds to a Ki of 2 nM. For the same compound, the IC50 in assay [1] (setting [4]) amounted to 111 nM.
For the compound `Nc1cnc(-c2ccc(-c3ccccc3S(=O)(=O)N3CCNC(=O)C3)cc2F)cn1` [Example 66, 4-{[4′-(5-Aminopyrazin-2-yl)-3′-fluorobiphenyl-2-yl]sulfonyl}piperazin-2-one], the affinity at human FLAP (setting [3]) corresponds to a Ki of 21 nM. Also, the IC50 in assay [1] (setting [4]) is 69 nM.
Regarding `Nc1ncc(-c2ccc(-c3ccccc3S(=O)(=O)Cc3nc4ccccc4c(=O)[nH]3)cc2F)cn1` [Example 317, 2-(((4′-(2-Aminopyrimidin-5-yl)-3′-fluoro-[1,1′-biphenyl]-2-yl)sulfonyl)methyl)quinazolin-4(3H)-one], affinity at human FLAP (setting [3]) was put at a Ki of 335 nM. Moreover, the IC50 in assay [1] (setting [4]) is above 10000 nM.
For `Cn1c(S(=O)(=O)c2ccccc2-c2ccc(-c3cnc(N)nc3)c(F)c2)nc2ccccc21` [Example 320, 5-{3-Fluoro-2′-[(1-methyl-1H-benzimidazol-2-yl)sulfonyl]biphenyl-4-yl}pyrimidin-2-amine], in that order: 129 nM and 1080 nM.
For `Nc1ccc(-c2ccc(-c3ccccc3S(=O)(=O)N3CCC(CO)CC3)cc2F)cn1` [Example 361, (1-((4′-(6-Aminopyridin-3-yl)-3′-fluoro-[1,1′-biphenyl]-2-yl)sulfonyl)piperidin-4-yl)methanol], in that order: 5 nM and 26 nM.
In turn, `Nc1ncc(-c2ccc(-c3ccccc3S(=O)(=O)N3CC(O)C3)cc2F)cn1` [Example 265, 1-{[4′-(2-Aminopyrimidin-5-yl)-3′-fluorobiphenyl-2-yl]sulfonyl}azetidin-3-ol trifluoroacetic acid salt] gave a Ki on human FLAP (setting [3]) of 45 nM. Further, the IC50 in assay [1] (setting [4]) amounted to 160 nM.
Take `Cc1ccnc(Oc2ccccc2-c2ccc(-c3cnc(N)nc3)c(F)c2)n1` [Example 546, 5-{3-Fluoro-2′-[(4-methylpyrimidin-2-yl)oxy]biphenyl-4-yl}pyrimidin-2-amine]: at human FLAP (wild type FLAP, HTRF format), the affinity, expressed as Ki, was 148 nM. For the same compound, the IC50 in assay [1] (setting [2]) came out at 253 nM.
Take `Nc1ncc(-c2ccc(-c3ccccc3S(=O)(=O)N[C@@H]3CCCNC3=O)cc2F)cn1` [Example 266, 4′-(2-Aminopyrimidin-5-yl)-3′-fluoro-N-[(3R)-2-oxopiperidin-3-yl]biphenyl-2-sulfonamide trifluoroacetic acid salt]: at human FLAP (setting [5]), the Ki was 184 nM. The IC50 in assay [1] (setting [4]) is 464 nM.
In turn, `Nc1ccc(-c2ccc(-c3ccccc3S(=O)(=O)N3CCC(CCO)CC3)cc2F)cn1` [Example 359, 2-(1-((4′-(6-Aminopyridin-3-yl)-3′-fluoro-[1,1′-biphenyl]-2-yl)sulfonyl)piperidin-4-yl)ethanol] yielded a Ki at human FLAP (setting [3]) of 4 nM. For the same compound, the IC50 in assay [1] (setting [4]) was 54 nM.
Take `O=S(=O)(c1ccccc1-c1ccc(-c2cnc3[nH]ccc3n2)c(F)c1)N1CCCC1` [Example 372, 2-[3-Fluoro-2′-(pyrrolidin-1-ylsulfonyl)biphenyl-4-yl]-5H-pyrrolo[2,3-b]pyrazine]: the affinity at human FLAP (setting [3]) corresponds to a Ki of 25 nM. In addition, the IC50 in assay [1] (setting [4]) is 31 nM.
As to `CCN(CC)S(=O)(=O)c1ccccc1-c1ccc(-c2csc(N)n2)c(F)c1` [Example 578, 4′-(2-Amino-1,3-thiazol-4-yl)-N,N-diethyl-3′-fluorobiphenyl-2-sulfonamide], the Ki on human FLAP (wild type FLAP, HTRF format) came out at 25 nM. In addition, the IC50 in assay [1] (setting [2]) was 956 nM.
At human FLAP (wild type FLAP, HTRF format), `CCNS(=O)(=O)c1cc(C(F)(F)F)ccc1-c1cnc(-c2cnc(N)nc2)c(F)c1` [Example 674, 2-[6-(2-Aminopyrimidin-5-yl)-5-fluoropyridin-3-yl]-N-ethyl-5-(trifluoromethyl)benzenesulfonamide] had a Ki of 2.4 nM. In assay [1] (setting [2]), the IC50 worked out at 17.4 nM.
As for `Nc1ccc(-c2ccc(-c3ccccc3S(=O)(=O)N3C[C@@H]4C[C@H]3CO4)cc2F)cn1` [Example 356, 5-(2′-((1S,4S)-2-Oxa-5-azabicyclo[2.2.1]heptan-5-ylsulfonyl)-3-fluoro-[1,1′-biphenyl]-4-yl)pyridin-2-amine], the Ki at human FLAP (setting [3]) stood at 32 nM. The IC50 in assay [1] (setting [4]) came to 107 nM.
Regarding `Nc1cnc(-c2ccc(-c3ccccc3CSc3nccc(N)n3)cc2F)cn1` [Example 753, 2-({[4′-(5-Aminopyrazin-2-yl)-3′-fluorobiphenyl-2-yl]methyl}sulfanyl)pyrimidin-4-amine], at human FLAP (wild type FLAP, HTRF format), affinity was put at a Ki of 4.4 nM. In addition, the IC50 in assay [1] (setting [2]) was 21.3 nM.
With `Nc1cnc(-c2ccc(-c3ccccc3SCC(=O)N3CCOCC3)cc2F)cn1` [Example 202, 5-{3-Fluoro-2′-[(2-morpholin-4-yl-2-oxoethyl)sulfanyl]biphenyl-4-yl}pyrazin-2-amine], the affinity at human FLAP (setting [3]), expressed as Ki, was 72 nM. Also, the IC50 in assay [1] (setting [4]) amounted to 172 nM.
